What was measured:
[1] = test system: GDNF; experiment: GDNF transcript levels in primary astrocytes (real-time PCR); assay type: cell-based, rat; details: 24 h treatment
Description: 1. Produce a primary culture of rat brain glial cells according to the method described in “Protective effects of the essential oil of salvia fruticosa and its constituents on astrocytic susceptibility to hydrogen peroxide-induced cell death”. 2009. A. Elmann, S. Mordechay, M. Rindner, O. Larkov, M. Elkabetz, U. Ravid. Journal of agricultural and food chemistry. 57(15):6636-41; 2. Separate astrocytes from other cell types in the culture according to the method described in “Protective effects of the essential oil of salvia fruticosa and its constituents on astrocytic susceptibility to hydrogen peroxide-induced cell death”. 2009. A. Elmann, S. Mordechay, M. Rindner, O. Larkov, M. Elkabetz, U. Ravid. Journal of agricultural and food chemistry. 57(15):6636-41; 3. Plate astrocytes in 6-wells PDL-coated plastic plates at a density of 2×10^6 cells/well, in DMEM/F12 containing 5% FBS, 2 millimolar glutamine, 100 U/ml penicillin, and 100 micrograms/ml streptomycin. 4. Incubate the culture for 24 hr (37° C., 5% CO2); 5. Aspirate medium and add fresh medium to the cells. 6. […]
Astrocytes were treated with achillolide A for 24 h. […] GDNF transcripts were measured using quantitative real time PCR. The results of three technical replicates were normalized to […] and are expressed as relative quantities of GDNF transcripts. […]

[2] = test system: LPS-activated splenocytes; experiment: Cytokine secretion from LPS-activated splenocytes (ELISA); assay type: cell-based, mouse; details: LPS 5 μg/mL; 24 h (IL-2) or 48 hr
Method: 1. Sacrifice Balb/c mice by decapitation. 2. Remove spleens from mice, pool, and squeeze to single cell suspension 3. Lyse red blood cells using lysis buffer, and wash cells several times. 4. Plate splenocytes (5×10^6 cells/well) on a 24-well tissue culture plate, in DMEM containing 10% FBS, 2 mM glutamine, 100 U/ml penicillin and 100 micrograms/mL streptomycin; 5. Treat cells with freshly diluted AcA of the invention; 6. Activate […] with lipopolysaccharide (LPS, 5 micrograms/mL); 7. Collect conditioned media for the measurement of cytokine levels; IL-2, after 24 h; IFNγ, TNF-α, IL-10, IL-12 and IL-6 after 48 hr. 8. Measure the levels of cytokines by ELISA; Ten naive Balb/c mice were sacrificed by decapitation. […] Spleens were removed from mice, pooled and squeezed to single cell suspension. Red blood cells were lysed using lysis buffer, cells were washed several times, and were plated (5×10^6 cells/well/ml) on a 24-well tissue culture plate. Cells were then stimulated with LPS (5 μg/mL) in the presence or absence of achillolide A. Conditioned media of the cells were collected for analysis: IL-2, after 24 h; IFNγ, TNF-α, IL-10, IL-12 and IL-6 after 48 hr. Cytokine levels were measured by ELISA in supernatants collected at the indicated time points. Data represent the mean±SEM from two different experiments performed in duplicates. […]

[3] = test system: N2a neuronal cells; experiment: SNP-induced ROS elevation in N2a cells; assay type: cell-based; details: TTF 2 μM; SNP 250 μM; 20 h
Method: N2a neuronal cells were pre-loaded with DCF-DA for 30 min and washed. TTF (2 μM) was added to cells before (−2 h, −1 h), concomitant with (0) or after (1 h, 2 h) the addition of SNP (250 μM). ROS levels in neuronal cells were measured 20 h after the application of SNP. The results are shown in FIG. 18 and are the mean±SEM of two different experiments (n=15).

[4] = test system: ERK1/2; experiment: SNP-induced ERK1/2 phosphorylation in N2a cells (ELISA); assay type: cell-based; details: concomitant treatment 40 min, total protein not affected
Method: N2a cells were treated concomitantly with SNP and TTF for 40 min. Cells were extracted and the levels of phosphorylated or total ERK1/2 were determined by specific ELISA kits. The results are shown in FIG. 19 and are the mean±SEM of one experiment (n=2).

Structure (SMILES) | effect on GDNF transcript levels [1] | effect on cytokine secretion (IL-2, IFNγ, TNF-α, IL-10, IL-12, IL-6) [2] | effect on SNP-induced ROS elevation [3] | effect on SNP-induced phosphorylation of ERK1/2 [4]
C=C1CCC2=C(CO)C(=O)O[C@H]2/C=C(\C)[C@H](OC(C)=O)CC1=O [achillolide A] | increases | Downregulates |  | 
COc1cc(-c2oc3cc(OC)c(OC)c(O)c3c(=O)c2O)ccc1O [TTF, 3,5,4′-trihydroxy-6,7,3′-trimethoxyflavone] |  |  | attenuates the elevation in ROS levels | significantly inhibited

Source: US11752125B2, “Anti-neuroinflammatory and protective compounds in Achillea fragrantissima” (THE STATE OF ISRAEL MINISTRY OF AGRICULTURE & RURAL …, priority 2013, dated 2023)
